How the values were obtained:
Assay type in all cases: binding
Details in all cases: relative to 6′SLN = 1, KD based on concentration of sialic acid residues, averaged
[1] = tested on: influenza virus B/Nib/48/90M
[2] = tested on: influenza virus A/Nib/26/90M (H3N2)
[3] = tested on: influenza virus A/Nib/23/89M-MA (H1N1)

Neu5Acα2-6Galβ1-4GlcNAcβ-O— [6′SLN, reference compound]
1: Relative inhibitory activity of tetraligand constructs [1] | Relative inhibitory activity of triligand constructs [1] | Relative inhibitory activity of tetraligand constructs [2] | Relative inhibitory activity of triligand constructs [2] | Relative inhibitory activity of tetraligand constructs [3] | Relative inhibitory activity of triligand constructs [3]

Source: patent US8674061B2, “Multiligand constructs” (priority 2008, dated 2014)
